This passage reports IC50 results from patent publication US9670147B2, “Antioxidant inflammation modulators: oleanolic acid derivatives with amino and other modifications at C-17” (REATA PHARMACEUTICALS, INC., priority 2008, dated 2017).

Assay [1] has as its system IFNγ-induced NO production in RAW264.7 macrophages. Briefly: Suppression of IFNγ-induced NO production (Griess reagent). Type of assay: cell-based, mouse. The conditions noted are these: Mus musculus, 2 h pre-treatment, then 20 ng/ml IFNγ for 24 hours. The method, then:
(§1) FIGS. 1-34. Inhibition of NO Production. RAW264.7 macrophages were pre-treated with DMSO or drugs at various concentrations (nM) for 2 hours, then treated with 20 ng/ml IFNγ for 24 hours. NO concentration in media was determined using the Griess reagent system; cell viability was determined using WST-1 reagent. FIGS. 49-52. Inhibition of NO Production. RAW264.7 macrophages were pre-treated with DMSO or drugs at various concentrations (nM) for 2 hours, then treated with 20 ng/ml IFNγ for 24 hours. NO concentration in media was determined using the Griess reagent system; cell viability was determined using WST-1 reagent. RAW264.7 macrophages were pre-treated with DMSO or drugs for 2 hours, then treated with recombinant mouse IFNγ (Sigma) for 24 hours. NO concentration in media was determined using the Griess reagent system (Promega). Cell viability was determined using WST-1 reagent (Roche).
A general note: The Griess reaction detects nitrite, a stable product of nitric oxide.

A further assay concerns RAW264.7 macrophages. The assay is described as follows: Cell viability, WST-1 reagent. The assay is classed as cell-based, mouse. The conditions noted are these: Mus musculus, 2 h pre-treatment, then 20 ng/ml IFNγ for 24 hours. The procedure:
as §1
For orientation: Tetrazolium assays rely on reduction of a dye to a coloured formazan, in cell work by metabolically active cells.

Broadly, the IC50 is the concentration that inhibits the measured activity by half. In the case of `CC1(C)CC[C@]2(NC(=O)Nc3ccc(O)cc3)CC[C@]3(C)[C@H](C(=O)C=C4[C@@]5(C)C=C(C#N)C(=O)C(C)(C)[C@@H]5CC[C@]43C)[C@@H]2C1` [Compound 63148, 1-((4aS,6aR,6bS,8aR,12aS,14aR,14bS)-11-cyano-2,2,6a,6b,9,9,12a-heptamethyl-10,14-dioxo-1,2,3,4,4a,5,6,6a,6b,7,8,8a,9,10,12a,14,14a,14b-octadecahydropicen-4a-yl)-3-(4-hydroxyphenyl)urea], the IC50 in assay [1] was about 25 nM; in the assay with RAW264.7 macrophages it was over 200 nM.
With `CCOC(=O)N[C@]12CCC(C)(C)C[C@H]1[C@H]1C(=O)C=C3[C@@]4(C)C=C(C#N)C(=O)C(C)(C)[C@@H]4CC[C@@]3(C)[C@]1(C)CC2` [Compound 63168, ethyl-(4aS,6aR,6bS,8aR,12aS,14aR,14bS)-11-cyano-2,2,6a,6b,9,9,12a-heptamethyl-10,14-dioxo-1,2,3,4,4a,5,6,6a,6b,7,8,8a,9,10,12a,14,14a,14b-octadecahydropicen-4a-ylcarbamate], the results for the half-maximal inhibitory concentration (IC50) (in assay [1]; in the assay on RAW264.7 macrophages) were 3.2 nM and 150 nM, respectively.
As to `CC(=O)N[C@]12CCC(C)(C)C[C@H]1[C@H]1C(=O)C=C3[C@@]4(C)C=C(C#N)C(=O)C(C)(C)[C@@H]4CC[C@@]3(C)[C@]1(C)CC2` [Compound 63170, N-((4aS,6aR,6bS,8aR,12aS,14aR,14bS)-11-cyano-2,2,6a,6b,9,9,12a-heptamethyl-10,14-dioxo-1,2,3,4,4a,5,6,6a,6b,7,8,8a,9,10,12a,14,14a,14b-octadecahydropicen-4a-yl)acetamide], the values for the IC50 (in assay [1]; with RAW264.7 macrophages) were 10.8 nM and over 200 nM, respectively.
With `CC1(C)CC[C@]2(NC(=O)C(F)(F)F)CC[C@]3(C)[C@H](C(=O)C=C4[C@@]5(C)C=C(C#N)C(=O)C(C)(C)[C@@H]5CC[C@]43C)[C@@H]2C1` [Compound 63171, N-((4aS,6aR,6bS,8aR,12aS,14aR,14bS)-11-cyano-2,2,6a,6b,9,9,12a-heptamethyl-10,14-dioxo-1,2,3,4,4a,5,6,6a,6b,7,8,8a,9,10,12a,14,14a,14b-octadecahydropicen-4a-yl)-2,2,2-trifluoroacetamide], the IC50 came to 12 nM in assay [1] and 90 nM in the assay on RAW264.7 macrophages.
As to `CCNC(=O)N[C@]12CCC(C)(C)C[C@H]1[C@H]1C(=O)C=C3[C@@]4(C)C=C(C#N)C(=O)C(C)(C)[C@@H]4CC[C@@]3(C)[C@]1(C)CC2` [Compound 63173, 1-((4aS,6aR,6bS,8aR,12aS,14aR,14bS)-11-cyano-2,2,6a,6b,9,9,12a-heptamethyl-10,14-dioxo-1,2,3,4,4a,5,6,6a,6b,7,8,8a,9,10,12a,14,14a,14b-octadecahydropicen-4a-yl)-3-ethylurea], the IC50 in assay [1] was 31 nM; in the assay with RAW264.7 macrophages, over 200 nM.
Turning to `CC1(C)CC[C@]2(NC(=O)OCc3ccccc3)CC[C@]3(C)[C@H](C(=O)C=C4[C@@]5(C)C=C(C#N)C(=O)C(C)(C)[C@@H]5CC[C@]43C)[C@@H]2C1` [Compound 63174, benzyl-(4aS,6aR,6bS,8aR,12aS,14aR,14bS)-11-cyano-2,2,6a,6b,9,9,12a-heptamethyl-10,14-dioxo-1,2,3,4,4a,5,6,6a,6b,7,8,8a,9,10,12a,14,14a,14b-octadecahydropicen-4a-ylcarbamate], the results for the half-maximal inhibitory concentration (IC50) (in assay [1]; in the assay on RAW264.7 macrophages) were 26 nM and 80 nM, respectively.
On to `CC1(C)CC[C@]2(NC(N)=O)CC[C@]3(C)[C@H](C(=O)C=C4[C@@]5(C)C=C(C#N)C(=O)C(C)(C)[C@@H]5CC[C@]43C)[C@@H]2C1` [Compound 63176, 1-((4aS,6aR,6bS,8aR,12aS,14aR,14bS)-11-cyano-2,2,6a,6b,9,9,12a-heptamethyl-10,14-dioxo-1,2,3,4,4a,5,6,6a,6b,7,8,8a,9,10,12a,14,14a,14b-octadecahydropicen-4a-yl)urea], for which the IC50 in assay [1] was 100 nM; with RAW264.7 macrophages it was over 200 nM.
The like results for `CC1(C)CC[C@]2(NC(=O)n3cccn3)CC[C@]3(C)[C@H](C(=O)C=C4[C@@]5(C)C=C(C#N)C(=O)C(C)(C)[C@@H]5CC[C@]43C)[C@@H]2C1` [Compound 63178, N-((4aS,6aR,6bS,8aR,12aS,14aR,14bS)-11-cyano-2,2,6a,6b,9,9,12a-heptamethyl-10,14-dioxo-1,2,3,4,4a,5,6,6a,6b,7,8,8a,9,10,12a,14,14a,14b-octadecahydropicen-4a-yl)-1H-pyrazole-1-carboxamide] were, in that order, 6.8 nM and 80 nM.
In the same order, the values of `CC1(C)CC[C@]2(NC(=O)CC(F)(F)F)CC[C@]3(C)[C@H](C(=O)C=C4[C@@]5(C)C=C(C#N)C(=O)C(C)(C)[C@@H]5CC[C@]43C)[C@@H]2C1` [Compound 63179, N-((4aS,6aR,6bS,8aR,12aS,14aR,14bS)-11-cyano-2,2,6a,6b,9,9,12a-heptamethyl-10,14-dioxo-1,2,3,4,4a,5,6,6a,6b,7,8,8a,9,10,12a,14,14a,14b-octadecahydropicen-4a-yl)-3,3,3-trifluoropropanamide] are 16 nM and 100 nM.
For `CN(C)C(=O)N[C@]12CCC(C)(C)C[C@H]1[C@H]1C(=O)C=C3[C@@]4(C)C=C(C#N)C(=O)C(C)(C)[C@@H]4CC[C@@]3(C)[C@]1(C)CC2` [Compound 63180, 3-((4aS,6aR,6bS,8aR,12aS,14aR,14bS)-11-cyano-2,2,6a,6b,9,9,12a-heptamethyl-10,14-dioxo-1,2,3,4,4a,5,6,6a,6b,7,8,8a,9,10,12a,14,14a,14b-octadecahydropicen-4a-yl)-1,1-dimethylurea], the IC50 in assay [1] was 13.5 nM; in the assay with RAW264.7 macrophages, 200 nM.
As to `CC1(C)CC[C@]2(NC(=O)N3CCCCC3)CC[C@]3(C)[C@H](C(=O)C=C4[C@@]5(C)C=C(C#N)C(=O)C(C)(C)[C@@H]5CC[C@]43C)[C@@H]2C1` [Compound 63181, N-((4aS,6aR,6bS,8aR,12aS,14aR,14bS)-11-cyano-2,2,6a,6b,9,9,12a-heptamethyl-10,14-dioxo-1,2,3,4,4a,5,6,6a,6b,7,8,8a,9,10,12a,14,14a,14b-octadecahydropicen-4a-yl)piperidine-1-carboxamide], the IC50 in assay [1] is 4 to 8 nM; with RAW264.7 macrophages, 75 nM.
As for `CC1(C)CC[C@]2(NC(=O)c3ccccc3)CC[C@]3(C)[C@H](C(=O)C=C4[C@@]5(C)C=C(C#N)C(=O)C(C)(C)[C@@H]5CC[C@]43C)[C@@H]2C1` [Compound 63182, N-((4aS,6aR,6bS,8aR,12aS,14aR,14bS)-11-cyano-2,2,6a,6b,9,9,12a-heptamethyl-10,14-dioxo-1,2,3,4,4a,5,6,6a,6b,7,8,8a,9,10,12a,14,14a,14b-octadecahydropicen-4a-yl)benzamide], the IC50 in assay [1] is 7 to 13 nM; in the assay on RAW264.7 macrophages, 125 nM.
Consider `CC(C)OC(=O)N[C@]12CCC(C)(C)C[C@H]1[C@H]1C(=O)C=C3[C@@]4(C)C=C(C#N)C(=O)C(C)(C)[C@@H]4CC[C@@]3(C)[C@]1(C)CC2` [Compound 63184, isopropyl-(4aS,6aR,6bS,8aR,12aS,14aR,14bS)-11-cyano-2,2,6a,6b,9,9,12a-heptamethyl-10,14-dioxo-1,2,3,4,4a,5,6,6a,6b,7,8,8a,9,10,12a,14,14a,14b-octadecahydropicen-4a-ylcarbamate], for which the half-inhibitory concentration (IC50) came out at 14.5 nM in assay [1] and 75 nM in the assay on RAW264.7 macrophages.
Take `CC1(C)CC[C@]2(NC(=O)Nc3ccccc3)CC[C@]3(C)[C@H](C(=O)C=C4[C@@]5(C)C=C(C#N)C(=O)C(C)(C)[C@@H]5CC[C@]43C)[C@@H]2C1` [Compound 63249, 1-((4aS,6aR,6bS,8aR,12aS,14aR,14bS)-11-cyano-2,2,6a,6b,9,9,12a-heptamethyl-10,14-dioxo-1,2,3,4,4a,5,6,6a,6b,7,8,8a,9,10,12a,14,14a,14b-octadecahydropicen-4a-yl)-3-phenylurea]: in the assay on RAW264.7 macrophages, the IC50 came to 50 nM.
On to `CC(=O)N[C@]12CCC(C)(C)C[C@H]1[C@H]1C(=O)C[C@@H]3[C@@]4(C)C=C(C#N)C(=O)C(C)(C)[C@@H]4CC[C@@]3(C)[C@]1(C)CC2` [Compound 63321, N-((4aS,6aR,6bR,8aR,12aR,12bR,14aR,14bS)-11-cyano-2,2,6a,6b,9,9,12a-heptamethyl-10,14-dioxo-1,2,3,4,4a,5,6,6a,6b,7,8,8a,9,10,12a,12b,13,14,14a,14b-icosahydropicen-4a-yl)acetamide], for which, in assay [1], the IC50 is about 70 nM.
Same read-out and setting: as for `CC1(C)CC[C@]2(NC(=O)C(F)(F)F)CC[C@]3(C)[C@H](C(=O)C[C@@H]4[C@@]5(C)C=C(C#N)C(=O)C(C)(C)[C@@H]5CC[C@]43C)[C@@H]2C1` [Compound 63322, N-((4aS,6aR,6bR,8aR,12aR,12bR,14aR,14bS)-11-cyano-2,2,6a,6b,9,9,12a-heptamethyl-10,14-dioxo-1,2,3,4,4a,5,6,6a,6b,7,8,8a,9,10,12a,12b,13,14,14a,14b-icosahydropicen-4a-yl)-2,2,2-trifluoroacetamide], the figure is about 50 nM; as for `CNC(=O)N[C@]12CCC(C)(C)C[C@H]1[C@H]1C(=O)C[C@@H]3[C@@]4(C)C=C(C#N)C(=O)C(C)(C)[C@@H]4CC[C@@]3(C)[C@]1(C)CC2` [Compound 63327, 1-((4aS,6aR,6bR,8aR,12aR,12bR,14aR,14bS)-11-cyano-2,2,6a,6b,9,9,12a-heptamethyl-10,14-dioxo-1,2,3,4,4a,5,6,6a,6b,7,8,8a,9,10,12a,12b,13,14,14a,14b-icosahydropicen-4a-yl)-3-methylurea], about 100 nM.
Consider `COC(=O)N[C@]12CCC(C)(C)C[C@H]1[C@H]1C(=O)C[C@@H]3[C@@]4(C)C=C(C#N)C(=O)C(C)(C)[C@@H]4CC[C@@]3(C)[C@]1(C)CC2` [Compound 63328, methyl (4aS,6aR,6bR,8aR,12aR,12bR,14aR,14bS)-11-cyano-2,2,6a,6b,9,9,12a-heptamethyl-10,14-dioxo-1,2,3,4,4a,5,6,6a,6b,7,8,8a,9,10,12a,12b,13,14,14a,14b-icosahydropicen-4a-ylcarbamate], for which the IC50 in assay [1] is about 25 nM.
